This note sets out measurements from patent US10759777B2, “Carbazole-containing amides, carbamates, and ureas as cryptochrome modulators” (Synchronicity Pharma, Inc., priority 2014, dated 2020).

The assay deals with C57/Bl6J DIO mice. In words: Increasing dosages of Compound 72 in diet-induced obesity (DIO) mouse model. Type of assay: in vivo. The note with it: 10, 30, 100 mg/kg PO QD 7 days. From the text:
Male C57/Bl6J DIO mice were obtained from The Jackson Laboratory (Sacramento, Calif.). […] Animals were accustomed to these conditions for at least 2 weeks before experimentation and used at approximately 24 weeks of age.
Significance was accepted when p<0.05.
Male C57/Bl6J DIO mice were obtained from The Jackson Laboratory (Sacramento, Calif.). […] Animals were accustomed to these conditions for at least 2 weeks before experimentation and used at approximately 26 weeks of age.

`O=C1NCCN1CC(O)Cn1c2ccc(F)cc2c2cc(F)ccc21` (stereo not shown) [Compound 72, 1-(3-(3,6-difluoro-9H-carbazol-9-yl)-2-hydroxypropyl)imidazolidin-2-one]: the “OGTT glucose excursion following a glucose load” value is on record as “reduction in glucose excursion”.
